Where no end group is shown, it is not given here.
Legend:
IL-1β and IL-6 = test: Expression of IL-1β and IL-6 in SW480 cell lysates by immunoblotting; assay type: cell-based, human
Experimental: Expression of IL-1β and IL-6: Two treatment models (post- and pre-LPS treatment) were utilized for assessing the effects of SPA4 peptide on LPS-induced cytokines: IL-1β and IL-6. Post-LPS treatment models (short-term and long-term) are described above. In pre-LPS treatment model, the SW480 cells were pretreated with SPA4 peptide (10 μM) for 2 hours, followed by LPS-challenge (1.0 μg/ml) for another 4 hours. The cell-lysates were prepared either in commercially available cell-culture lysis reagent (Promega, WI) or directly into SDS-PAGE sample buffer containing 50 mM dithiothreitol (Cell Signalling Technology, MA). Ten μg of cell-lysate proteins were separated on 4-20% Novex Tris-glycine gradient SDS-PAGE gel (Invitrogen, CA) or 10% separating-5% stacking acrylamide gel. The expression levels of cytokines were measured by immunoblotting as described above using 1:1000 diluted antibodies against IL-1β and IL-6. Both antibodies were purchased from Santacruz Biotech, CA.

[1] = molecular target: T1, recombinant TLR4-MD2 protein (Homo sapiens, UniProt O00206); test: Microwell-based binding to immobilized recombinant TLR4-MD2 protein; conditions: for binding to surface-bound TLR4-MD2 protein: 0.25 μg TLR4-MD2 per well, detected with SP-A-specific antibody
T1 construct: extracellular domain of human TLR4 protein (Glu 24-Lys 631 amino acids); 10x histidine tag (C); signal peptide from human CD33 (N); purchased R&D Systems, MN; host or cells: mouse myeloma cell line NS0
Description: Interaction between purified baboon lung SP-A, SP-A-peptides and TLR4-MD2 proteins using a microwell-based method: The binding between the purified baboon lung SP-A, SP-A-peptides and recombinant TLR4-MD2 and MD2 proteins was studied in vitro using a microwell-based method (Awasthi et al., 2004). The soluble, recombinant TLR4-MD2 protein (R&D Systems, MN) consisted of a mixture of recombinant human-TLR4 and MD2 proteins. The recombinant extracellular domain of human TLR4 protein (Glu 24-Lys 631 amino acids), was joined with a DNA sequence encoding the signal peptide from human CD33 and a 10× histidine tag at the C-terminus (Accession # O00206). For MD2 protein, a DNA sequence encoding the signal peptide from human CD33 was joined with the mature region of human MD-2 (mature region, Glu 17-Asn 160 amino acids) and a 10× histidine tag at the C-terminus (Accession # Q9Y6Y9). The chimeric proteins were expressed in a mouse myeloma cell line, NS0 (R&D Systems, MN). The proteins were obtained from the manufacturer in carrier-free condition and reconstituted in PBS containing 0.1% low-endotoxin BSA (MP Biomedicals, OH). MD2, an adaptor molecule for TLR4, is expressed by immune cells, and is known to bind TLR4 in a non-covalent manner (Jain et al., 2008). Thus, the binding of SP-A to the recombinant MD2 protein (R&D Systems, MN) was also studied.
For the binding assay, microwell ultra-high-protein binding Immunolon 4HBX strips (Thermo Scientific, MA) were coated with soluble recombinant-TLR4-MD2 protein or MD2 protein (R&D Systems, 250 ng per well, diluted in 0.1 M NaHCO3, pH 9.6) overnight at room temperature. The plates were washed three times, and non-specific sites were blocked for 2 h at room temperature using phosphate buffered saline containing 0.1% triton-X 100 and 3% nonfat milk (Buffer A). […] The immune-complex was detected using 3,3′,5,5′-tetramethylbenzidine (TMB) substrate system (Sigma-Aldrich, MO). The reaction was stopped with 2 N H2SO4 and read at 405 and/or 450 nm spectrophotometrically (Molecular Devices, CA).

DSS-colitis = test: Dextran sodium sulfate (DSS)-colitis model in mice; assay type: in vivo; conditions: 3% DSS 7 days, SPA4 100 μg daily intraperitoneal
Experimental: SPA4 peptide reduced serum TNF-α and inflammation in Dextran sodium sulfate (DSS)-colitis model in mice (FIG. 18). SPA4 peptide was also evaluated in the mouse model of DSS-colitis. DSS (3% in drinking water) was given to the mice for a period of 7 days. In the treatment group, mice were simultaneously injected with SPA4 peptide (100 μg daily via intraperitoneal route). After 2 days of recovery period, the mice were weighed, colons were macroscopically examined, and blood samples were harvested. The TNF-α levels were measured by ELISA.

[2] = test system: LPS-induced acute inflammation; test: Mouse model of LPS-inflammation (endotoxic shock-like symptoms, TNF-α); assay type: in vivo, Balb/c Mice; conditions: mice; for LPS-induced clinical symptoms (endotoxic shock-like): LPS 0.1 μg/g body weight i.p., SPA4 2.5 μg/g, SP-A 0.5 μg/g; for LPS-induced circulatory TNF-α amounts: LPS 0.1 μg/g body weight, serum, ELISA; for LPS-induced TNF-α levels in lung tissue homogenates: LPS 1 μg/g or 15 μg/g body weight, treated at 1 hour, sacrificed at 5 hours
Experimental: In Example 5, the efficacy of SPA4 peptide in inhibiting LPS-induced acute inflammation was investigated in a mouse model of LPS-inflammation. Balb/c Mice were challenged with E. coli 0111:B4 highly purified, low protein-derived LPS (0.1 or 1 or 15 μg/g body wt) via an intraperitoneal route, one hour prior to treatment with SPA4 peptide (2.5 μg/g body weight) or full-length purified SP-A (0.5 μg/g body weight) via an intraperitoneal route. The mice were monitored for endotoxic-shock like clinical symptoms (including, but not limited to, ruffled fur, eye exudates, diarrhea, prostration, and lack of reactivity), and these symptoms were scored on the basis of severity from 0 to 3, and average clinical symptom indices were calculated for each animal based on the symptom grades (Metkar et al., 2007). Endotoxic-shock like clinical symptoms were noted (at 5 or 7 hours), and mice were sacrificed at different time-intervals after LPS challenge. Major organs and blood specimens were collected. Secreted amounts of TNF-α cytokine were measured in serum and lung tissue homogenates by ELISA method.

T1 sequence (O00206 24-631): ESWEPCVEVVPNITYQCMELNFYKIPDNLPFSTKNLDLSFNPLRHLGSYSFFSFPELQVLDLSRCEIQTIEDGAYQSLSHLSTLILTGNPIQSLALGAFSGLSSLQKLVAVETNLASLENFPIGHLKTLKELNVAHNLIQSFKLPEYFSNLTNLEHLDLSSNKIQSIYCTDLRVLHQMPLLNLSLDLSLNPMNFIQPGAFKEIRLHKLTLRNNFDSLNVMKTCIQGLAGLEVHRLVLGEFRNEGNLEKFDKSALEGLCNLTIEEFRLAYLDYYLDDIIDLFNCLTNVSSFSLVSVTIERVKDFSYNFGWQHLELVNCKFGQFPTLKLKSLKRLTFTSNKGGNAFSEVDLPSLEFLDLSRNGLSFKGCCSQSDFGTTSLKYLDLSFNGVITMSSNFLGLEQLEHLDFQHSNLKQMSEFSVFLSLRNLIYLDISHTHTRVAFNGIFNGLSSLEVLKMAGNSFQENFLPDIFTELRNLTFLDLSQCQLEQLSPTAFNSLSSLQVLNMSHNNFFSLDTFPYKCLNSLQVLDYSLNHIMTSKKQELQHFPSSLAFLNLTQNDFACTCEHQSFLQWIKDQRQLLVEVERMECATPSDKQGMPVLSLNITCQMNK
T1 sequence (Q9Y6Y9 17-160 partner limits assumed): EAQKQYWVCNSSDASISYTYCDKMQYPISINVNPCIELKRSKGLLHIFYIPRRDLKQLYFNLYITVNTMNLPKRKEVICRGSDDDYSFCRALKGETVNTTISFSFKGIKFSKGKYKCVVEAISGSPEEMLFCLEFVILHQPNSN

Substance | expression of IL-6 precursors or active form, short-term treatment model (IL-1β and IL-6) | expression of low molecular weight precursors and active IL-1β, post-LPS treatment models (IL-1β and IL-6; 5 hours and 9 hours, dose-dependent) | IL-6 expression, prolonged treatment (IL-1β and IL-6; 6 hours or 9 hours in pre- and post-LPS-treatment models) | expression of IL-1β precursor and active forms, pre-LPS treatment model (IL-1β and IL-6; SPA4 10 μM 2 hours then LPS 1.0 μg/ml 4 hours) | expression of IL-1β precursor form 1 (IL-1β and IL-6; compared with LPS-treated cells) | binding to surface-bound TLR4-MD2 protein [1] | efficiency of binding to TLR4-MD2 protein compared with whole native SP-A protein ([1]; SPA4 2-20 μg versus SP-A 2-10 μg) | colitis symptoms (distension and shortening of the colon) (DSS-colitis) | DSS-induced serum levels of circulating TNF-α (DSS-colitis; ELISA) | body weight (DSS-colitis; compared to DSS-colitis mice) | colon length (DSS-colitis; compared to DSS-colitis mice) | LPS-induced clinical symptoms (endotoxic shock-like) [2] | LPS-induced circulatory TNF-α amounts [2] | LPS-induced TNF-α levels in lung tissue homogenates [2]
GDFRYSDGTPVNYTNWYRGE [SPA4, GDFRYSDGT PVNYTNWYRGE] | not significantly affected | significantly decreased | significantly inhibited | significant decrease | increased or unchanged | binds to TLR4-MD2 protein | less efficient | reduced the colitis symptoms | completely inhibited | recovered | recovered | inhibit | reduced | reduced
SP-A: native surfactant protein-A purified from bronchioalveolar lavage fluid of a normal healthy adult baboon (MWLCPLALTLTLMAASGAACEVKDVCVGSPGIPGTPGSHGLPGRDGRDGVKGDPGPP; listed as Papio cynocephalus) |  |  |  |  |  | showed binding |  |  |  |  |  | inhibit | reduced | low

From patent US8623832B2, “Peptide compositions that bind TLR-4” (The Board of Regents of the University of Oklahoma, priority 2011, dated 2014)
